We go through 25 compounds from patent publication US11091460B2, “Syk inhibitor and use method therefor” (CHIA TAI TIANQING PHARMACEUTICAL GROUP CO., LTD., priority 2017, dated 2021).

A word on the IC50: it is the concentration that gives 50% inhibition.

The target of the first assay is T1, SYK kinase (Homo sapiens, UniProt P43405).
T1 construct: purchased Invitrogen PV3857
The assay is described as follows: In vitro test of the inhibition effect on SYK kinase (HTRF). It is filed as biochemical. The settings on record: tyrosine kinase 0.0156 ng/μL, substrate 0.2 uM, ATP 2 uM, 23° C. 1 hour, read-out: Inhibit SYK kinase IC50. The protocol:
Experimental Example 1: In Vitro Test of the Inhibition Effect of the Example Compounds on SYK Kinase
Adenosine triphosphate concentration was controlled at 2 uM. • 4) Loaded with a Multidrop automatic dispenser, and a mixture of tyrosinase solution and tyrosine kinase-substrate-biotin/adenosine triphosphate was added in an amount of 5 ul per well, and incubated at 23° C. for 1 hour. • c) Detection phase: • 1) Added 13.33 mL of ethylenediaminetetraacetic acid solution to the Detection Buffer in the kit, added the specified amount of […] (Eu)-labeled antibody and streptavidin XL-665, and prepared the detection solution. • 2) Loaded with a Multidrop automatic dispenser, and 10 uL of the detection solution per well, incubated at 23° C. for 1 hour. It terminated the reaction of the enzyme and substrate mixture. • 3) Reading after centrifugation on a multi-function microplate reader, • d) Data Analysis: Analyzed the data with XL-Fit, and calculated the IC50 value of the compound.
For `Cn1c(=O)c(Nc2ccc(C(C)(O)C(F)(F)F)cn2)cc2c(F)c(-c3cc[nH]n3)ccc21` (single isomer, unassigned) [Example 24, 5-Fluoro-1-methyl-6-(1H-pyrazol-3-yl)-3-((5-(1,1,1-trifluoro-2-hydroxypropan-2-yl)pyridine-2-yl)amino)quinoline-2(1H)-one], the IC50 was 12.3 nM.
`Cn1c(=O)c(Nc2ccc(C(C)(O)C(F)(F)F)cn2)cc2c(F)c(-c3cc[nH]n3)ccc21` (single isomer, unassigned) [Example 25, 5-Fluoro-1-methyl-6-(1H-pyrazol-3-yl)-3-((5-(1,1,1-trifluoro-2-hydroxypropan-2-yl)pyridine-2-yl)amino)quinoline-2(1H)-one]: the half-inhibitory concentration (IC50) is 8.9 nM.
On the same count and under the same terms, in the case of `Cn1c(=O)c(Nc2ccc(N3CCOCC3)cc2)cc2cc(-c3cc[nH]n3)ccc21` [Example 1, 1-Methyl-3-((4-morpholinephenyl)amino)-6-(1H-pyrazol-3-yl) quinoline-2(1H)-one] it was 33.8 nM; in that of `Cn1c(=O)c(Nc2ccc(N3CCC(O)(C(F)(F)F)CC3)cn2)cc2cc(-c3cc[nH]n3)ccc21` [Example 5], 58.4 nM; in that of `C[C@@H]1COCCN1c1ccc(Nc2cc3c(F)c(-c4cc[nH]n4)ccc3n(C)c2=O)nc1` [Example 13, (R) 5-fluoro-1-methyl-3-((5-(3-methylmorpholine)pyridin-2-yl)amino)-6-(1H-pyrazol-3-yl)quinoline-2(1H)-one], 923 nM.
Consider `C[C@H]1COCCN1c1ccc(Nc2cc3c(F)c(-c4cc[nH]n4)ccc3n(C)c2=O)nc1` [Example 14, (S) 5-fluoro-1-methyl-3-((5-(3-methylmorpholine)pyridin-2-yl)amino)-6-(1H-pyrazol-3-yl)quinoline-2(1H)-one], for which the IC50 worked out at 237 nM.
Turning to `Cn1c(=O)c(Nc2ccc(C3(O)COC3)cn2)cc2c(F)c(-c3cc[nH]n3)ccc21` [Example 22, 5-Fluoro-3-[[5-(3-hydroxyoxetan-3-yl)pyridin-2-yl]amino]-1-methyl-6-(1H-pyrazol-3-yl)quinoline-2(1H)-one], the IC50 is 38.5 nM.
With `Cn1c(=O)c(Nc2ccc(N3CCOCC3)cc2)nc2ccc(-c3cc[nH]n3)cc21` [Example 27, 1-Methyl-3-((4-morpholinephenyl)amino)-7-(1H-pyrazol-3-yl) quinoxaline-2(1H)-one], the half-maximal inhibitory concentration (IC50) is 78 nM.
Still for that read-out and setting: in the case of `Cn1c(=O)c(Nc2ccc(N3CCOCC3)cc2)nc2ccc(-c3ccncc3)cc21` [Example 28, 1-Methyl-3-((4-morpholinephenyl)amino)-7-(pyridin-4-yl)quinoxaline-2(1H)-one] it was 230 nM; in that of `Cn1c(=O)c(Nc2ccc(N3CCOCC3)cc2)nc2ccc(-c3ncc[nH]3)cc21` [Example 30, 7-(1H-imidazol-2-yl)-1-methyl-3-((4-morpholinephenyl)amino)quinoxaline-2(1H)-one], 461 nM; in that of `Cn1c(=O)c(Nc2ccc(N3CCOCC3)cc2)nc2ccc(-c3nccs3)cc21` [Example 32, 1-Methyl-3-((4-morpholinephenyl)amino)-7-(thiazol-2-yl)quinoxaline-2(1H)-one], 212 nM.
`CN1CCN(S(=O)(=O)c2ccc(Nc3nc4ccc(-c5cn[nH]c5)cc4n(C)c3=O)cc2)CC1` [Example 34, 1-Methyl-3-((4-((4-methylpiperazin-1-yl)sulfonyl)phenyl)amino)-7-(1H-pyrazol-4-yl)quinoxaline-2(1H)-one]: the IC50 came to 26 nM.
Turning to `CCS(=O)(=O)N1CCN(c2ccc(Nc3nc4ccc(-c5cn[nH]c5)cc4n(C)c3=O)cc2)CC1` [Example 36, 3-((4-(4-(Ethylsulfonyl)piperazin-1-yl)phenyl)amino)-1-methyl-7-(1H-pyrazol-4-yl)quinoxaline-2(1H)-one], the concentration for half-maximal inhibition (IC50) turned out to be 6.4 nM.
As for `Cn1c(=O)c(Nc2cccc(N3CCN(S(C)(=O)=O)CC3)c2)nc2ccc(-c3cn[nH]c3)cc21` [Example 40, 1-Methyl-3-((3-(4-(methylsulfonyl)piperazin-1-yl)phenyl)amino)-7-(1H-pyrazol-4-yl)quinoxaline-2(1H)-one], the concentration for half-maximal inhibition (IC50) was 163 nM.
Still for that read-out and setting: in the case of `Cn1c(=O)c(Nc2ccc(N3CCOCC3)cc2)nc2cc(Cl)c(-c3cn[nH]c3)cc21` [Example 42, 6-Chloro-1-methyl-3-((4-morpholinephenyl)amino)-7-(1H-pyrazol-4-yl)quinoxaline-2(1H)-one] it was 30 nM; in that of `Cn1c(=O)c(Nc2ccc(N3CCOCC3)cc2)nc2ccc(-c3cn[nH]c3)c(Cl)c21` [Example 43, 8-Chloro-1-methyl-3-((4-morpholinephenyl)amino)-7-(1H-pyrazol-4-yl)quinoxaline-2(1H)-one], 116 nM; in that of `Cn1c(=O)c(Nc2ccc(N3CCOCC3)cc2F)nc2ccc(-c3cn[nH]c3)cc21` [Example 47, 3-((2-Fluoro-4-morpholinephenyl)amino)-1-methyl-7-(1H-pyrazol-4-yl)quinoxaline-2(1H)-one], 242 nM.
For `Cc1cc(Nc2nc3ccc(-c4cn[nH]c4)cc3n(C)c2=O)ccc1N1CCOCC1` [Example 49], the concentration for half-maximal inhibition (IC50) amounted to 22.5 nM.
With `Cn1c(=O)c(Nc2ccc(N3CCOCC3)c(Cl)c2)nc2ccc(-c3cn[nH]c3)cc21` [Example 50, 3-((3-Chloro-4-morpholinephenyl)amino)-1-methyl-7-(1H-pyrazol-4-yl)quinoxaline-2(1H)-one], the 50% inhibitory concentration (IC50) was 49 nM.
For the compound `COc1cc(Nc2nc3ccc(-c4cn[nH]c4)cc3n(C)c2=O)ccc1N1CCOCC1` [Example 51, 3-((3-Methoxy-4-morpholinephenyl)amino)-1-methyl-7-(1H-pyrazol-4-yl)quinoxaline-2(1H)one], the IC50 was determined as 12.9 nM.
The same measure, in the same setting: in the case of `Cn1c(=O)c(Nc2ccc(N3CCOCC3)cn2)nc2ccc(-c3cn[nH]c3)cc21` [Example 52, 1-Methyl-3-((5-morpholinepyridin-2-yl)amino)-7-(1H-pyrazol-4-yl)quinoxaline-2(1H)one] it was 29.7 nM.
Consider `Cn1c(=O)c(Nc2ccc(N3CCOCC3)nc2)nc2ccc(-c3cn[nH]c3)cc21` [Example 53, 1-Methyl-3-((6-morpholinepyridin-3-yl)amino)-7-(1H-pyrazol-4-yl) quinoxaline-2(1H)one], for which the IC50 is 39.3 nM.
The same measure, in the same setting: in the case of `Cn1c(=O)c(Nc2ccc(NC3CCOCC3)nc2)nc2ccc(-c3cn[nH]c3)cc21` [Example 56, 1-Methyl-7-(1H-pyrazol-4-yl)-3-((6-((tetrahydro-2H-pyran-4-yl)amino)pyridin-3-yl)amino)quinoxaline-2(1H)-one] it was 29.2 nM.
On the same count and under the same terms, in the case of `Cn1c(=O)c(Nc2ccc(N3CCOCC3)cc2)nc2ccc(-c3cnc(N)[nH]3)cc21` [Example 57, 7-(2-Amino-1H-imidazol-5-yl)-1-methyl-3-((4-morpholinephenyl)amino)quinoxaline-2(1H)-one] it was 62.9 nM; in that of `Cn1c(=O)c(Nc2ccc(N3CCOCC3)cc2)nc2ccc(-c3cnc(N)s3)cc21` [Example 58, 7-(2-Aminothiazol-5-yl)-1-methyl-3-((4-morpholinephenyl)amino)quinoxaline-2(1H)-one], 197 nM.

A further assay concerns AKT phosphorylation. The assay can be described thus: In vitro test of the inhibition effect on AKT phosphorylation (ELISA, Ramos cells). The following applies: Homo sapiens, Ramos, Ramos cell line, compound 1 hour, goat anti-human IgM 10 ug/ml for 10 minutes, Phospho-AKT 1/2/3 (ser473) ELISA; read-out: Inhibit AKT phosphorylation IC50. It is filed as cell-based. The protocol:
Experimental Example 2: In Vitro Test of the Inhibition Effect of the Example Compounds on AKT Phosphorylation
• 2.1 Experimental Purpose: Intracellular protein kinase AKT phosphorylation detected by experiment was measured by enzyme-linked immunosorbent assay (ELISA), and the inhibition of the compound on protein kinase AKT phosphorylation was evaluated by an index of the half-cell inhibition concentration (IC50) value of the compound. • 2.2 Experimental Materials: • Cell line: Ramos cell line • Cell culture medium (RPMI1640, Invitrogen #22400-105; 10% serum Gibco #10099-141; L-glutamine 1×, Gibco #25030-081) • Experimental medium (without serum, RPM11640, Invitrogen #22400-105; L-glutamine 1×, Gibco #25030) • Lysis buffer (trishydroxymethylaminomethane hydrochloride, Invitrogen15567-1000 ml; sodium chloride, domestic; sodium deoxycholate, Sigma30970-25 G; polyethylene glycol octylphenyl ether, SigmaT9284-100 ml; dodecane sodium sulfonate, SigmaL3771; ethylenediaminetetraacetic acid, Invitrogen15575-038-100 ml; ultrapure water, MilliQ) • Protease inhibitor (Roche, 4693159001-30/BOX) • Phosphatase inhibitor mixture 2 (Sigma, P5726-5 ML) • Phosphatase inhibitor mixture 3 (Sigma, P0044-5 ML) • Goat Anti-Human immunoglobulin M (F(ab′)2 Goat Anti-Human IgM) (Jackson Immuno Research-109-006-129) • Phosphorylated AKT assay kit (Phospho-AKT 1/2/3 (ser473)) (TGR Bioscience, EKT002) • 10× Hank's balanced salt solution (Gibco #14065-056) • 96-well cell plate (Greiner #655090) • Compound V-well dilution plate (Axygen #WITP02280) • CO2 incubator (Thermo #371) • Centrifuge (Eppendorf #581 OR) • Vi-cell cell counter (Beckman Coulter) • Pipette (Eppendorf) • Pipette (Greiner) • Pipetting gun (Eppendorf) • Multi-purpose microplate reader (Envision Reader) • 2.3 Experimental procedures and methods: • a) Cell Seeding (Ramos Cells) • 1) The medium was preheated in a 37° C. water bath. Suspended cells and their culture solution were aspirated, centrifuged at 1000 rpm for 5 minutes. • 2) Aspirated the cell culture medium, added 10 mL of pre-warmed medium to the centrifuge tube, blew off the resuspended cells, pipette 1 mL of the cell suspension, and counted with Vi-cell; • 3) The Ramos cells were diluted with a medium to a density of 5×10^6/mL, and the diluted cells were added to a 96-well cell culture plate (100 μL/well) using a lance. Placed the cell plates in a 37° C., 5% CO2 incubator for overnight. • b) Cell starvation: • 1) After cultured the inoculation cells for overnight, centrifuged at 1000 rpm for 5 minutes on the next day, aspirated the original medium by a lance, added serum-free experimental medium, placed the cell plates in a 37° C., 5% CO2 incubator, and starved for overnight. • c) Compound preparation and dosing: • 1) The compound was diluted with dimethyl sulfoxide to give an initial concentration of 5 mM. A triple gradient dilution was done with compound V dilution plate to make 10 concentration points. • 2) Took another new compound V-well dilution plate, added 198 ul of serum-free experimental medium to each well, and then added 2 ul of the diluted compound above to each well, and mixed with a lance. […]
For `Cn1c(=O)c(Nc2ccc(C(C)(O)C(F)(F)F)cn2)cc2c(F)c(-c3cc[nH]n3)ccc21` (single isomer, unassigned) [Example 24, 5-Fluoro-1-methyl-6-(1H-pyrazol-3-yl)-3-((5-(1,1,1-trifluoro-2-hydroxypropan-2-yl)pyridine-2-yl)amino)quinoline-2(1H)-one], the IC50 was 175 nM.

The same assay, now with this note: Ramos cell line, compound 1 hour, goat anti-human IgM 10 ug/ml for 10 minutes, Phospho-AKT 1/2/3 (ser473) ELISA; read-out: Inhibit AKT phosphorylation IC50.
As to `Cn1c(=O)c(Nc2ccc(C(C)(O)C(F)(F)F)cn2)cc2c(F)c(-c3cc[nH]n3)ccc21` (single isomer, unassigned) [Example 25, 5-Fluoro-1-methyl-6-(1H-pyrazol-3-yl)-3-((5-(1,1,1-trifluoro-2-hydroxypropan-2-yl)pyridine-2-yl)amino)quinoline-2(1H)-one], the IC50 came to 121 nM.
Still for that read-out and setting: in the case of `Cn1c(=O)c(Nc2ccc(N3CCOCC3)cc2)cc2cc(-c3cc[nH]n3)ccc21` [Example 1, 1-Methyl-3-((4-morpholinephenyl)amino)-6-(1H-pyrazol-3-yl) quinoline-2(1H)-one] it was 248 nM.
